Values after ≈ are worked out from the molar mass of the structure shown.
Experiments:
[1] = Silymarin solubility in water, CAPTISOL® solution and γ-cyclodextrin solution (Example 2, HPLC); format: physicochemical; conditions: for solubility: water, thermodynamic from solid, Solubility (mg/ml) of components of silymarin
Procedure: The solutions were centrifuged for 10 min at 13K rpm. An aliquot of the supernatant was diluted 1:5 for Water, 1:25 for γ-Cyclodextrin and 1:100 for both 0.20 M CAPTISOL® and 0.20M HP-B-Cyclodextrin using MeOH as the diluent. The standard reference was prepared by dissolving silymarin in 10 mg/mL of DMSO and then diluted to 0.50 mg/mL using MeOH.
The change of the saturated solubility of the various components of silymarin in each of the four types of samples can be seen in FIG. 4.
The data shown in Table 6 is plotted in FIGS. 5 and 6. The change of the solubility of the various components of silymarin in each of the three samples can be seen in FIG. 5. The total mutual saturated solubility of all flavonolignan components can be seen in FIG. 6. […] The various components of silymarin also have increased solubility in the CAPTISOL® (0.2M) sample.

[2] = Solubility of silymarin components in water (Example 10, HPLC); format: physicochemical
Procedure: (§1) Silymarin components including taxifolin, silydianin, silychristin, silybin A, silybin B, isosilybin A, and isosilybin B were tested for their solubility in water and also for their Log D value. The silymarin extract was obtained from Indena® (Indena Code: 9065110). The HPLC system consisted of Waters system equipped with performance PLUS inline degasser along dual λ absorbance detector set at 288 nm. The chromatographic separation of silymarin constituents was achieved on a Symmetry Shield RP18 column (150×4.6 mm, 5 μm); which was maintained at ambient room temperature conditions. The binary mobile phase system consisted of reservoir A (methanol: 10 mM ammonium acetate pH 5 [65:35 v/v]) and reservoir B (10 mM ammonium acetate, pH 5) were run as per gradient program (0-1.9 min: 25% A and 75% B; 2.0-14.9 min: 80% A and 20% B and 15-37.9 min: 80% A and 20% B and 38-40 min: 25% A and 75% B). The flow rate was 1 mL/min throughout the analytical run.

[3] = Log D of silymarin components (octanol/buffer, HPLC); format: physicochemical; conditions: pH 7.4
Procedure: as §1
To determine the Log D of silymarin components, the silymarin extract (2 mg) was dissolved in 100% DMSO and then used for the experiment. Different buffers between pH ranges of 1.0 to 12 were prepared by using universal buffer stock containing 25 mM hydrochloric acid, 25 mM citric acid, 25 mM phosphoric acid, 30 mM boric acid and 20 mM sodium chloride. About 45 mL of universal buffer was titrated with Sodium hydroxide (5M) to obtain desired pH. A 10 μL of silymarin stock solution was spiked into Eppendorf tube containing 500 μL each of a buffer and presaturated octanol. This mixture was vortexed for 5 minutes and kept for shaking at room temperature. After 16 h, the mixture was centrifuged at 10,000 RPM for 30 minutes. After centrifugation buffer and octanol phases were separated, both phases were diluted with acetonitrile (1:1) and subject to HPLC analysis for quantitation of individual components of silymarin. The Log D values of each compound at a pH was determined by Log D (pH)=Log [Organic (peak area)/Aqueous (peak area)].

[4] = Pharmacokinetic study in rat; format: in vivo; conditions: in vivo
Procedure: The Silymarin-CAPTISOL® complex was administered to rat to test its pharmacokinetic properties.
On arrival rats were housed individually in cages at animal care facility in a temperature and humidity controlled room with a 12 h:12 h (light:dark) cycles. The rats were provided with free access to food and water for one week before using for experimental purpose. The 12 rats were equally divided into three groups—Group I: silymarin-CAPTISOL® complex with a CAPTISOL® concentration of 100 mM for oral administration; Group II: silymarin suspension (Control); and Group III: silymarin complex with a CAPTISOL® concentration of 100 mM for intravenous administration. The animals were fasted overnight with free access to water. On the day of experiment, the rat was removed from animal care facility and brought to the procedure lab. The animal was weighed and appropriate dosing volume was determined. For oral administration, rat's head was held in place by gently extending the head back and supporting the lower body. The gavage tube was placed in the mouth and advanced along the lower palate till the esophagus, and the silymarin was administered through the tube. For intravenous administration, the silymarin-CAPTISOL® complex was administered by slow bolus intravenous injection into the tail vein. Approximately 200 μL blood was drawn into heparin coated tubes at pre dose, 0.15, 0.5, 1, 2, 4, 8, 10 and 24 h for oral group II and for intravenous group III. The sampling time points were predose, 0.12, 0.25, 0.5, 1, 2, 4, 8 and 24 h through the jugular vein catheter. Plasma was harvested by centrifuging the blood at 4000 RPM for 5 min and stored frozen at −80±10° C. until analysis.
Stored plasma was thawed just before performing the silymarin components analysis. 200 μL of acetonitrile containing 0.1% of ammonia was added to 50 μL of plasma, and this mixture was vortexed for 5 min and centrifuged at 4° C. for 5 min at 10,000 RPM. After centrifugation, the supernatant was separated and injected into HPLC for analysis of silymarin constituents taxifolin, silydianin, silychristin, silybin A, silybin B, isosilybin A and isosilybin B.
The plasma concentration-time curves of silybin A, silybin B, isosilybin A, and isosilybin B in the Silymarin-CAPTISOL® sample of Group I and the control sample (silymarin suspension) are respectively shown in FIGS. 20A to 20D.

[5] = Silymarin saturated solubility with CAPTISOL® (Example 1, HPLC); conditions: for solubility: 25 °C, thermodynamic from solid, Solubility (mg/ml) of flavonolignan components of silymarin, saturated with excess silymarin
Procedure: CAPTISOL® was dissolved in water to form four solutions with a CAPTISOL® concentration of 0.05 mol/L, 0.1 mol/L, 0.2 mol/L, and 0.3 mol/L respectively. 12 mg of silymarin powder (Sigma Aldrich) was added to 1 mL of each of the four CAPTISOL® solutions on Day 1, another 12 mg Silymarin powder was added on Day 3, and 19-22 mg Silymarin powder was added on Day 7 to ensure that silymarin reached its maximum solubility in each solution. The solutions were stirred in a water bath at 25° C. The solutions were then centrifuged prior to sampling. The supernatant was diluted in MeOH in preparation for HPLC assay.
A reference standard was prepared by mixing silymarin with methanol to provide a methanol solution with a silymarin concentration of 0.1 mg/ml.
HPLC was used to measure the relative concentrations of the different components of silymarin in each sample solution following the method described in Kuki et al., (2012) Chromatogram 75:175-180. The relative concentration of each component of silymarin was measured by comparing the normalized peak area units with that of the standard reference measured by the UV data at 288 nm and assuming equivalent extinction coefficients for all components.
The relative molar amounts of the ten flavonolignan components of silymarin were calculated by dividing the normalized peak area of each component in a sample by the total normalized peak area of the sample.
The concentration of each flavonolignan component of silymarin was calculated from the peak areas in Tables 1a and 1b and the total concentration of silymarin (0.1 mg/ml) in the reference sample, assuming constant extinction coefficients for each component.

[6] = CAPTISOL® (0.2M) in water, saturated
[7] = MeOH standard (0.5 mg/ml), reference
[8] = γ-cyclodextrin (0.15M) (Cavamax) in water, saturated
[9] = γ-cyclodextrin (0.15M), saturated
[10] = 0.05 M CAPTISOL in water, aqueous with cosolvent or surfactant or cyclodextrin, CAPTISOL® (0.05M) in water
[11] = 0.1 M CAPTISOL in water, aqueous with cosolvent or surfactant or cyclodextrin, CAPTISOL® (0.1M) in water
[12] = 0.2 M CAPTISOL in water, aqueous with cosolvent or surfactant or cyclodextrin, CAPTISOL® (0.2M) in water
[13] = 0.3 M CAPTISOL in water, aqueous with cosolvent or surfactant or cyclodextrin, CAPTISOL® (0.3M) in water
[14] = CAPTISOL® (0.05M), saturated solubility
[15] = CAPTISOL® (0.1M), saturated solubility
[16] = CAPTISOL® (0.2M), saturated solubility
[17] = CAPTISOL® (0.3M), saturated solubility
[18] = H2O, saturated solubility, share of total normalized peak area
[19] = MeOH standard (0.1 mg/ml), reference, share of total normalized peak area

For `COc1cc([C@H]2Oc3cc([C@H]4Oc5cc(O)cc(O)c5C(=O)[C@H]4O)ccc3O[C@@H]2CO)ccc1O` (relative stereo) [2,3-cis-silybin A], the “Solubility (mg/ml) of components of silymarin” value (shortened to “Solubility (mg/ml)”) [1, 6] was 2.21 mg/mL, the “Percentages of components of silymarin flavonolignan in the sample” value (from here on “Percentages of components … in the sample”) ([1]; CAPTISOL® (0.2M), saturated) was 3.47% and the “Percentages of components … in the sample” value ([1]; H2O, saturated) was 1.88%. The “Solubility (mg/ml)” value ([1]; H2O, saturated) was 0.01 mg/mL, the “Solubility (mg/ml)” value ([1]; MeOH standard (0.5 mg/ml silymarin, dissolved reference, not saturated)) was 0.01 mg/mL and the “Percentages of components … in the sample” value [1, 7] was 1.54%. For the same compound, the “Solubility (mg/ml)” value [1, 8] was 0.12 mg/mL and the “Percentages of components … in the sample” value [1, 9] was 1.56%.

With `COc1cc([C@@H]2Oc3cc([C@H]4Oc5cc(O)cc(O)c5C(=O)[C@H]4O)ccc3O[C@H]2CO)ccc1O` (relative stereo) [2,3-cis-silybin B] the “Solubility (mg/ml)” value [1, 6] was 1.20 mg/mL, the “Percentages of components … in the sample” value ([1]; CAPTISOL® (0.2M), saturated) was 1.89% and the “Percentages of components … in the sample” value ([1]; H2O, saturated) was 0.75%. For the same compound, the “Solubility (mg/ml)” value ([1]; H2O, saturated) was 0.01 mg/mL, the “Percentages of components … in the sample” value [1, 7] was 0.99% and the “Solubility (mg/ml)” value [1, 8] was 0.06 mg/mL. For the same compound, the “Percentages of components … in the sample” value [1, 9] was 0.74%.

With `COc1cc([C@@H]2Oc3ccc([C@H]4Oc5cc(O)cc(O)c5C(=O)[C@@H]4O)cc3O[C@H]2CO)ccc1O` [Isosilybin B] the “Solubility in water” value [2] was 6.36 µg/mL (≈ 0.0132 mM), the “Log D (7.4 pH)” value [3] was 2.53 and the “AUC(0-2 h)” value ([4]; iv) was 1417 ng·h/mL. The “Cmax” value ([4]; iv) was 1308 ng/mL, the “Tmax” value ([4]; iv) was 7.2 min and the “% Fabs of silymarin-CAPTISOL® complex compared with silymarin alone” value ([4]; po) was “higher % Fabs”. For the same compound, the “AUC of Silymarin-CAPTISOL® complex compared with the control sample” value ([4]; po) was “higher AUC”, the “AUC(0-2 h)” value ([4]; po) was 433 ng·h/mL and the “Cmax of Silymarin-CAPTISOL® complex compared with the control sample” value ([4]; po) was “higher Cmax”. The “Tmax” value ([4]; po) was 30 min.

`COc1cc([C@H]2Oc3cc([C@H]4Oc5cc(O)cc(O)c5C(=O)[C@@H]4O)ccc3O[C@@H]2CO)ccc1O` [Silybin A] gave a solubility [1] of 30 µg/mL (≈ 0.0622 mM), a solubility ([2]; water) of 7.71 µg/mL (≈ 0.016 mM) and a logD at 16 h [3] of 2.26. The AUC(0-t) ([4]; iv, AUC(0-2 h) (ng · h/mL)) was 3440 ng·h/mL, the Cmax ([4]; iv, Cmax (ng/mL)) was 7910 ng/mL and the Tmax ([4]; iv, Tmax (h)) was 7.2 min. The “% Fabs of silymarin-CAPTISOL® complex compared with silymarin alone” value ([4]; po) was “higher % Fabs”, the “AUC of Silymarin-CAPTISOL® complex compared with the control sample” value ([4]; po) was “higher AUC” and the “AUC(0-2 h)” value ([4]; po) was 271 ng·h/mL. For the same compound, the “Cmax of Silymarin-CAPTISOL® complex compared with the control sample” value ([4]; po) was “higher Cmax”, the Tmax ([4]; po, Tmax (h)) was 30 min and the solubility [5, 10] was 2230 µg/mL (≈ 4.62 mM). For the same compound, the solubility [5, 11] was 3800 µg/mL (≈ 7.88 mM), the solubility [5, 12] was 6370 µg/mL (≈ 13.2 mM) and the solubility [5, 13] was 7330 µg/mL (≈ 15.2 mM). The “Percentages of flavonolignan components of silymarin in the sample” value (from here on “Percentages … of silymarin in the sample”) [5, 14] was 9.55%, the “Percentages … of silymarin in the sample” value [5, 15] was 9.86% and the “Percentages … of silymarin in the sample” value [5, 16] was 9.64%. For the same compound, the “Percentages … of silymarin in the sample” value [5, 17] was 10.22%, the “Percentages … of silymarin in the sample” value [5, 18] was 3.15% and the “Percentages … of silymarin in the sample” value ([5]; H2O, saturated solubility, share of total normalized peak area, listed as silybin A) was “about 3.15%”. For the same compound, the “Percentages … of silymarin in the sample” value [5, 19] was 25.35% and the solubility ([5]; water, H2O) was 20 µg/mL (≈ 0.0415 mM).

`COc1cc([C@@H]2Oc3c(O)cc([C@H]4Oc5cc(O)cc(O)c5C(=O)[C@@H]4O)cc3[C@H]2CO)ccc1O` [Silychristin A] showed a solubility [1] of 440 µg/mL (≈ 0.912 mM), a solubility [5, 10] of 9570 µg/mL (≈ 19.8 mM) and a solubility [5, 11] of 15300 µg/mL (≈ 31.7 mM). For the same compound, the solubility [5, 12] was 25500 µg/mL (≈ 52.8 mM), the solubility [5, 13] was 26900 µg/mL (≈ 55.8 mM) and the “Percentages … of silymarin in the sample” value [5, 14] was 41.07%. The “Percentages … of silymarin in the sample” value [5, 15] was 39.70%, the “Percentages … of silymarin in the sample” value [5, 16] was 38.52% and the “Percentages … of silymarin in the sample” value [5, 17] was 37.52%. For the same compound, the “Percentages … of silymarin in the sample” value [5, 19] was 22.28% and the solubility ([5]; water, H2O) was 460 µg/mL (≈ 0.953 mM).

`COc1cc([C@H]2Oc3c(O)cc([C@H]4Oc5cc(O)cc(O)c5C(=O)[C@@H]4O)cc3[C@@H]2CO)ccc1O` [Silychristin B] gave a solubility [1] of 60 µg/mL (≈ 0.124 mM), a solubility [5, 10] of 930 µg/mL (≈ 1.93 mM) and a solubility [5, 11] of 1150 µg/mL (≈ 2.38 mM). For the same compound, the solubility [5, 12] was 2320 µg/mL (≈ 4.81 mM), the solubility [5, 13] was 2500 µg/mL (≈ 5.18 mM) and the “Percentages … of silymarin in the sample” value [5, 14] was 3.98%. The “Percentages … of silymarin in the sample” value [5, 15] was 2.99%, the “Percentages … of silymarin in the sample” value [5, 16] was 3.51% and the “Percentages … of silymarin in the sample” value [5, 17] was 3.48%. For the same compound, the “Percentages … of silymarin in the sample” value [5, 18] was 5.21%, the “Percentages … of silymarin in the sample” value [5, 19] was 1.50% and the solubility ([5]; water, H2O) was 40 µg/mL (≈ 0.0829 mM).

For `COc1cc([C@@H]2Oc3c(O)cc([C@H]4Oc5cc(O)cc(O)c5C(=O)[C@@H]4O)cc3[C@H]2CO)ccc1O` [Silychristin], the “Solubility in water” value [2] was 170 µg/mL (≈ 0.352 mM) and the “Log D (7.4 pH)” value [3] was 0.53.

— patent US10702568B2, “Compositions containing silymarin and sulfoalkyl ether cyclodextrin and methods of using the same” (UNIVERSITY OF KANSAS, priority 2015, dated 2020)
